Measurements: patent US20260374750A1, “LIGANDS SPECIFICALLY TARGETING VESICULAR GLUTAMATE TRANSPORTERS FOR SUPER-RESOLUTION IMAGING” (SORBONNE UNIVERSITÉ, priority 2021, published 2026)

What was measured:
[1] = Fluorimetry: absorption and emission spectra, Stokes shift, molar absorption coefficient, quantum efficiency; type: physicochemical; parameters: λmax abs / λmax em: unit not given here; key to Stokes shift: λmaxem − λmaxabs (emission peak minus absorption peak); conditions: for Stokes shift: λmaxem-λmaxabs; for ε (molar absorption coefficient) / φ (quantum efficiency): coumarin-343 as reference
Method: The physicochemical properties of each ligand were determined thanks to fluorimetry. For each compound, a dilution range was performed and measurements were taken at 1 mM, 316 μM, 100 μM, 31.6 μM, 10 μM, 3.16 μM and 1μ. In 96-well fluorescence microplates, the absorbance and emission spectra of the ligands could be determined at each concentration thanks to a plate spectrophotometer (Tecan). The absorbance spectra are first measured for each compound so as to determine the maximum absorption wavelength (λmaxabs). The fluorescence, or emission, spectra are then determined after excitation of each compound at its λmaxabs, thus allowing obtaining the maximum fluorescence wavelength (λmaxem). Different parameters specific to each of the compounds were determined: • The Stokes shift: it corresponds to the difference between the peak of the absorption spectrum and the peak of the fluorescence spectrum, i.e.: λmaxem-λmaxabs • The molar absorption coefficient (ε): it reflects the capacity of the solutions to absorb light and is determined by the formula ε=A/(C.I)(A: optical density at λmaxabs, C: concentration of the compound, I: constant corresponding to the length of the optical path). ε is expressed in L·cm^−1·mol^−1. • The quantum efficiency (Φ): it represents the ratio of the number of photons emitted to the number of photons absorbed by the compound, i.e. the “probability” for an excited molecule to emit a photon. It takes a value between 0 and 1, 0 corresponding to a non-fluorescent molecule and 1 meaning that there is no de-excitation. Its value is determined thanks to the following formula where Abs: optical density at λmaxabs, AUC: area under the curve of the fluorescence spectrum, n: refractive index of the medium. In this formula, “m” refers to the studied molecule, and “r” to a reference fluorophore.
[formula] • of the fluorescence spectrum, n: refractive index of the medium). In this formula, “m” refers to the studied molecule, and “r” to a reference fluorophore.
The determination of ε and Φ requires the use of a reference fluorescent molecule for which these two parameters are known. Because of its coumarin-type fluorescent pattern, therefore close to those of the studied compounds, coumarin-343 (ε=44300 L·cm−1·mol−1 and Φ=0.63 in ethanol) was used as reference fluorophore. These two parameters were recalculated in the compound dilution medium (DMSO), and were used as a reference in the calculation of ε and Φ for each ligand.
In order to study the effect of a pH variation on the fluorescence intensity of the compounds, the measurements of the absorption and emission spectra were carried out in three different dilution media: • DMSO: pure dimethyl sulfoxide • Phosphate buffer pH 7.2 (0.2 M) • Phosphate buffer pH 5.5 (0.2 M)
FIG. 1 illustrates the absorption and emission spectra of the compound referenced L8, a carboxylic acid from the quinoline family. This is an example of the study carried out on each of the studied fluorophores. The graphic values determined thanks to these spectra are the λmaxabs, the λmaxem and the Stokes shift in each medium. […] The most diluted wells are preferred to see the emission peak of the compound.
The results which are obtained graphically thanks to the excitation and emission spectra and by calculation via the properties of coumarin 343 are grouped in Table 2 below.

[2] = test system: VGLUTs (GLU vesicular transport); assay: Vesicular glutamate reuptake test ([3H]-glutamate, synaptic vesicles); type: biochemical, rat; conditions: for EC50: vesicular glutamate transport; for potency in words (EC50): based on EC50
Method: The EC50 was also determined for several of the compounds of the invention.
The vesicular glutamate reuptake was tested as previously described (Kish and Ueda, 1989; Naito and Ueda, 1985; Pietrancosta et al., 2010) with minor modifications. Aliquots of synaptic vesicles […] (obtained by differential centrifugation of rat cortex) were diluted in a solution containing 4 mM HEPES-KOH, pH 7.4 and 0.32M sucrose. The tested compounds were dissolved in 1% ethanol, 1% DMSO (pH was adjusted to 7.4 with 5% KOH) to initial concentrations comprised between 2 mM and 200 μM. The compounds were then diluted to desired final concentrations in a solution containing 10 mM HEPES-KOH, pH 7.4, 0.32 M sucrose, 4 mM KCl, 4 mM MgSO4 (named TPU). The tested compounds were pre-incubated in a solution containing 3 mM ATP-Mg, 1 mM L-aspartic acid, 100 μM glutamate and 0.4 mM […] and 0.4 μM [3H]-Glutamate (1.547 TBq/mmol). After 4 min at 37 °C, the reuptake reaction was initiated by the addition of rat synaptic vesicles. This mixture was incubated for 10 min at 37 °C before adding ice-cold TPU (3.5 mL) and rapidly filtering it through a membrane filter ([…], Millipore MF reference HAWP02500) using a vacuum collector. The filters were washed five times with 3.5 mL of cold TPU and placed in scintillation vials with a scintillation cocktail (optiphase hisafe 3, reference 1200-437, Perkin Elmer). The radioactivity related to the filters was measured in a Beckman LS 6500 scintillation spectrophotometer. The values obtained in the absence of ATP-Mg or in the presence of Carbonyl [COMPOUND LEFT OUT] 3-chlorophenylhydrazone (CCCP, 50 μM reference Sigma C2759) were used to determine the non-specific activity.

[3] = pH 7 (phosphate buffer pH 7.2, 0.2 M)
[4] = phosphate buffer pH 5.5 (0.2 M)

| SMILES | λmax em ([1]; DMSO) | Stokes shift ([1]; DMSO) | ε (molar absorption coefficient) ([1]; DMSO) | φ (quantum efficiency) ([1]; DMSO) | Stokes shift ([1]; pH 5.5) | λmax abs [1, 3] | λmax em [1, 3] | Stokes shift ([1]; pH 7) | λmax abs [1, 4] | λmax em [1, 4] | EC50 ([2]; quinoline-derived compounds) | λmax abs ([1]; DMSO) | potency in words (EC50) [2] | EC50 ([2]; coumarin-derived compounds) | % inhibition of GLU vesicular transport at 20 μM ([2]; quinoline-derived compounds) | fluorescence intensity of emission spectra ([1]; FIG. 1) | % inhibition of GLU vesicular transport at 20 μM ([2]; coumarin-derived compounds) |
| --- | --- | --- | --- | --- | --- | --- | --- | --- | --- | --- | --- | --- | --- | --- | --- | --- | --- |
| CCOC(=O)c1cc2cc(C#Cc3ccc(-c4ccc(N)cc4)cc3)c(O)cc2oc1=O [F11, Ethyl-6-((4′-amino-[1,1′-biphenyl]-4-yl)ethynyl)-7-hydroxy-2-oxo-2H-chromene-3-carboxylate] | 500-620 | 160 | 62227.6 L/cm/mol | 0.18 | 45 | 365 | 425 | 60 | 365 | 410 |  |  |  |  |  |  |  |
| COc1cc2oc(=O)c(C(=O)O)cc2cc1-n1cc(-c2ccc(-c3ccc(N)cc3)cc2)nn1 [LSP17-1124, 6-(4-(4′-amino-[1,1′-biphenyl]-4-yl)-1H-1,2,3-triazol-1-yl)-7-methoxy-2-oxo-2H-chromene-3-carboxylic Acid] | 405-511 | 75 | 21908.6 L/cm/mol | 0.14 | 45 | 365 | 416 | 51 | 335 | 380 |  | 330 | effective at a very low concentration | 0.4 µM |  |  | 100% |
| Nc1ccc(-c2ccc(C#Cc3cc4cc(C(=O)O)c(=O)oc4cc3O)cc2)cc1 [LSP17-1173, 6-((4′-amino-[1,1′-biphenyl]-4-yl)ethynyl)-7-hydroxy-2-oxo-2H-chromene-3-carboxylic Acid] | 460 | 125 | 51857.8 L/cm/mol | 0.06 | 47 | 360 |  | 80 | 365 | 412 |  |  | effective at a very low concentration | 0.5 µM |  |  | 100% |

Continued, in another order:

| λmax em ([1]; DMSO) | Stokes shift ([1]; DMSO) | ε (molar absorption coefficient) ([1]; DMSO) | φ (quantum efficiency) ([1]; DMSO) | Stokes shift ([1]; pH 5.5) | λmax abs [1, 3] | λmax em [1, 3] | Stokes shift ([1]; pH 7) | λmax abs [1, 4] | λmax em [1, 4] | EC50 ([2]; quinoline-derived compounds) | λmax abs ([1]; DMSO) | potency in words (EC50) [2] | EC50 ([2]; coumarin-derived compounds) | SMILES | % inhibition of GLU vesicular transport at 20 μM ([2]; quinoline-derived compounds) | fluorescence intensity of emission spectra ([1]; FIG. 1) | % inhibition of GLU vesicular transport at 20 μM ([2]; coumarin-derived compounds) |
| --- | --- | --- | --- | --- | --- | --- | --- | --- | --- | --- | --- | --- | --- | --- | --- | --- | --- |
| 415 | 60 | 35280.3 L/cm/mol | 0.32 | 80 | 330 |  | 80 | 330 | 410 | 22 µM | 355 |  |  | O=C(O)c1cc(C(=O)O)c2cc(-c3ccc(-c4ccccc4)cc3)ccc2n1 [LSP13-1152-YL152 (L8), 6-(Biphenyl-4-yl) quinoline-2,4-dicarboxylic Acid] | 49% | very significant fluorescence intensities |  |
| 410 | 85 | 36944.8 L/cm/mol | 0.06 | 43 | 365 | 415 | 50 | 365 | 408 |  | 325 |  |  | Nc1ccc(-c2ccc(-c3cn(-c4ccc5oc(=O)c(C(=O)O)cc5c4)nn3)cc2)cc1 [LSP17-1115, 6-(4-(4′-amino-[1,1′-biphenyl]-4-yl)-1H-1,2,3-triazol-1-yl)-2-oxo-2H-chromene-3-carboxylic Acid] |  |  | 6% |
